According to BindingDB's records for patent US10919885 (Yumanity Therapeutics, 2021):

What was measured:
Stearoyl-CoA desaturase = biological target: T1, Stearoyl-CoA desaturase (Homo sapiens, UniProt O00767); assay: Compound Profiling Methods
T1 sequence (O00767 whole entry): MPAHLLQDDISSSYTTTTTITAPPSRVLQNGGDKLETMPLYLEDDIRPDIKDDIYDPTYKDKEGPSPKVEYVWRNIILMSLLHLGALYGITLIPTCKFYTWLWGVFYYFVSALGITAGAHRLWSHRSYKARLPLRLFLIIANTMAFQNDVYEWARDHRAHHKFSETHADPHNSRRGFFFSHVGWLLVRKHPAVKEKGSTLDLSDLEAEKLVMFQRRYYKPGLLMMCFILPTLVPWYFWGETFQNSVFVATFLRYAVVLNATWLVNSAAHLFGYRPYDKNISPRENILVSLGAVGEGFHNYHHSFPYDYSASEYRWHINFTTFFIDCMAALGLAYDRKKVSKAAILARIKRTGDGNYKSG
Experimental: (§1) Strains expressing SCD1 or SCD5 as the sole desaturase, the human SCD1 and SCD5 genes were used to evaluate inhibition of SCD1/SCD5 using reduced growth as a surrogate for SCD inhibition. These yeast strains express human SCD1 or SCD5 from a plasmid harbored in a strain in which the yeast OLE1 gene is deleted.All compound profiling experiments were performed using the same basic protocol. Yeast were cultured using standard techniques in complete synthetic media lacking uracil and containing yeast nitrogen base supplemented with 2% (w/v) glucose (SD-Ura) Starter cultures were inoculated in 3 mL SD-Ura media containing 0.01% tween and 0.2 mM palmitoleic and oleic acid. Cultures were incubated overnight in a 30° C. shaker incubator (225 rpm). Saturated morning cultures were centrifuged, washed in SD-Ura media lacking TWEEN-20 and fatty acids, and then diluted 1:20 in fresh SD-Ura media also lacking TWEEN-20 and fatty acids. […] Compound administration was performed in two separate steps. First, 15 μL of SD-Ura was dispensed into clear 384-well assay plates using a MULTIDROP Combi reagent dispenser. […] The cultures described above were centrifuged and washed with media lacking TWEEN-20 or oleic and palmitoleic acids. Cultures were then resuspended at a 2-fold concentrated OD600 of 0.02 (final OD600 of 0.0.01) in SD-Ura. […] Yeast growth was monitored by reading the OD600 of each well using a microplate reader (Perkin Elmer EnVision ). Data were analyzed as follows.

[1] = biological target: T2, Stearoyl-CoA desaturase 5 (Homo sapiens, UniProt Q86SK9); assay: Compound Profiling Methods
T2 sequence (Q86SK9 whole entry): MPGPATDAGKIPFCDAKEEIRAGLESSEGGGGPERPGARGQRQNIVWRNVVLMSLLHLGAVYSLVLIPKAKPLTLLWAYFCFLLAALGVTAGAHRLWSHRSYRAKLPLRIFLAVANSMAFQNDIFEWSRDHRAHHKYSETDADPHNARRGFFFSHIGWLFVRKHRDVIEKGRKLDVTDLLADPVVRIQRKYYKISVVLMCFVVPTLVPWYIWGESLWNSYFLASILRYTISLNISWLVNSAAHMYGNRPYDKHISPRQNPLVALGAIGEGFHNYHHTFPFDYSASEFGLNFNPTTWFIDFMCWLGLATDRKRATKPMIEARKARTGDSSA
Experimental: as §1

Compound	IC50 (Stearoyl-CoA desaturase) [µM]	IC50 [1] [µM]
O=C(Nc1cnn(Cc2ccccc2)c1)c1cc(-c2ccc3c(c2)OCO3)on1 [US10919885, Compound No. 6]	> 45	
O=C(c1cc(-c2ccc3c(c2)OCO3)on1)N1CCC(c2ccc(F)c(F)c2)CC1 [US10919885, Compound No. 292]	> 45	1.82
CC(C)(C)OC(=O)N1CCC(NC(=O)c2cc(-c3ccco3)on2)C1 (stereo not drawn) [US10919885, Compound No. 332]	> 45	> 45
O=C(c1cc(-c2ccc3c(c2)CCO3)on1)N1CCCC1c1ccncn1 (stereo not drawn) [US10919885, Compound No. 440]	> 45	> 45

Continued, values first:

IC50 (Stearoyl-CoA desaturase) [µM]	IC50 [1] [µM]	Compound
> 45	> 45	O=C(Nc1cnn(Cc2cccc(Cl)c2)c1)c1cc(-c2ccccn2)on1 [US10919885, Compound No. 57]
> 45	> 45	CC(C)(C)OC(=O)N1CCC(NC(=O)c2cc(-c3ccco3)on2)CC1 [US10919885, Compound No. 287]
> 45	4.75	N#Cc1ccc(C2CCN(C(=O)c3cc(-c4ccc5c(c4)OCO5)on3)CC2)cc1 [US10919885, Compound No. 291]
> 45	29.4	CC(C)(C)OC(=O)N1CCC2(CCN(C(=O)c3cc(-c4ccccc4)on3)C2)C1 (stereo not drawn) [US10919885, Compound No. 295]
> 45		COc1ccc(C2CCCN2C(=O)c2cc(-c3ccccc3OC)on2)cc1 (stereo not drawn) [US10919885, Compound No. 379]
> 45	> 45	O=C(c1noc2ccccc12)N1CCC[C@H]1c1ccccc1 [US10919885, Compound No. 438]
